Test results taken from patent US9023789B2, “Amylin analogs and pharmaceutical compositions thereof” (Novo Nordisk A/S, priority 2012, dated 2015).
Read-outs that look alike come from different tables or passages of the source. Numbered stars: 1 amine (or outer) side, 2 acyl side, 3 side chain; on linkers, the order of the positions; unused ones are H or OH. Bridge positions count the residues as written; N and C are the ends. Side chains are listed from the residue outwards. Peptide text beside a SMILES is read from it. * marks the point of attachment. C20 diacid = O=C(O)CCCCCCCCCCCCCCCCCCC(=O)*; γGlu = O=C(O)[C@H](CCC(=O)[*:2])N[*:1]

Experiments:
[1] = ASSAY (IV) determination of solubility; assay type: physicochemical
Outline: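 UPLC read-out of polypeptide concentration after centrifugation. Samples: aqueous polypeptide stock ([…]) + 100 mM buffer 1:1, glycylglycine pH 3.0–5.0 or bistrispropane pH 6.0–8.0; 18 h, RT.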

[2] = biological target: T1, human amylin receptor (membranes from Amylin 3(a)/CRE-luc cells) (Homo sapiens, UniProt O60896+P30988); test: ASSAY (V) binding to the human amylin receptor (SPA, 125I-rat amylin);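 further: competition binding of cell membranes (35 ng/µL) mixed with SPA beads in 384-well plates at 40 µL total volume, read by scintillation counting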
T1 construct: expressed in transfected cells
T1 sequence (P30988 25-474): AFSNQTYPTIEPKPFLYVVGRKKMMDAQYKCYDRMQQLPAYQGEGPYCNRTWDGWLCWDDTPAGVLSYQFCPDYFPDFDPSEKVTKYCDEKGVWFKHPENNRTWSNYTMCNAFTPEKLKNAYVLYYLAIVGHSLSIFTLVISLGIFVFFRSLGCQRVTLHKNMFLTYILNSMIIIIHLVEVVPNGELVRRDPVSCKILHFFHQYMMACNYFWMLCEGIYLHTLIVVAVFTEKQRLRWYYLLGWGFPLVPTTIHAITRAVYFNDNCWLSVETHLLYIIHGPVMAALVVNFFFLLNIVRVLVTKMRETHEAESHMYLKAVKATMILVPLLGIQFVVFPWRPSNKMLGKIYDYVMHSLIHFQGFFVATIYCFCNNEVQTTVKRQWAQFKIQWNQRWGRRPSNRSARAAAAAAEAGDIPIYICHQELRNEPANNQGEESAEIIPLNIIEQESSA
T1 sequence (O60896 24-148 partner): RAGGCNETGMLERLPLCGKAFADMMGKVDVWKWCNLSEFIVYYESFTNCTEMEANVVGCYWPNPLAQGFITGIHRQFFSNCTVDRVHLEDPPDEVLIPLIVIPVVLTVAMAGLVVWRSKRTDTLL

[3] = biological target: T2, rat amylin receptor (rat calcitonin receptor + rat RAMP 3) (Rattus norvegicus, UniProt P32214+Q9JJ73); test: ASSAY (VI) binding to the rat amylin receptor; conditions: for IC50: binding to rat amylin receptor, read-out: rAmylin-R bind IC50
T2 construct: expressed in transfected cells; host or cells: BHK tk'ts 13 (transient, FuGENE 6), membranes
T2 sequence (P32214 25-479 isoform P32214-2 limits assumed): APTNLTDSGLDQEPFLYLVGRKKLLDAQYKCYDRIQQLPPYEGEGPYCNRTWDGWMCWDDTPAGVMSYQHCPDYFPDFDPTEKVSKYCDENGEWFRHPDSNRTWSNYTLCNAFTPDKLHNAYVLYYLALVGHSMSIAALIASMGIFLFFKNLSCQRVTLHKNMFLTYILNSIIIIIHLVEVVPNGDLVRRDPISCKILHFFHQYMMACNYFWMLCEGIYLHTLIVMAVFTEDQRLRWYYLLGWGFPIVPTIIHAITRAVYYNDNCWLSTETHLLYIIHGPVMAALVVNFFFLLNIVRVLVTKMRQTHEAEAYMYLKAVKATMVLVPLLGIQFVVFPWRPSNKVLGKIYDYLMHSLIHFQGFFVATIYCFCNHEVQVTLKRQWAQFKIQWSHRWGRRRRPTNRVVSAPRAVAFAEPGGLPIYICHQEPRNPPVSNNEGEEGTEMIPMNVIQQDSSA
T2 sequence (Q9JJ73 23-147 partner): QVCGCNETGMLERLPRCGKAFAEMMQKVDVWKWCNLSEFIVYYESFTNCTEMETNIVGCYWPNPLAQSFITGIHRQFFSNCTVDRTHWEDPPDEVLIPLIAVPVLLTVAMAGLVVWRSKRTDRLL
Outline: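 Membranes for this rat amylin receptor binding assay came from BHK tk′ts 13 cells. The cells were transiently transfected with rat calcitonin receptor using the FuGENE® 6 reagent from Roche, as the manufacturer recommends. The cells were collected approximately 48 hours after transfection, and membranes were then prepared.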

rat calcitonin receptor = biological target: T3, rat calcitonin receptor (Rattus norvegicus, UniProt P32214); test: ASSAY (VIII) binding to the rat calcitonin receptor; conditions: Table 7, read-out: rCTR bind IC50
T3 construct: expressed in transfected cells; host or cells: BHK tk'ts 13 (transient, FuGENE 6), membranes
T3 sequence (P32214 25-479 isoform P32214-2 limits assumed): T2 sequence (P32214 25-479 isoform P32214-2 limits assumed)
Outline: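 Receptor source: membranes from transiently transfected BHK tk′ts 13 cells expressing rat calcitonin receptor, collected roughly 48 hours after transfection.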

[4] = bistrispropane buffer, pH 6.5, read-out: Solubility pH 6.5 Concentration
[5] = bistrispropane buffer, pH 7.5, read-out: Solubility pH 7.5 Concentration
[6] = bistrispropane buffer, pH 6.0, read-out: Solubility pH 6.0 Concentration
[7] = bistrispropane buffer, pH 7.0, read-out: Solubility pH 7.0 Concentration
[8] = bistrispropane buffer, pH 8.0, read-out: Solubility pH 8.0 Concentration
[9] = glycylglycine buffer, pH 3.0, read-out: Solubility pH 3.0 Concentration
[10] = glycylglycine buffer, pH 4.0, read-out: Solubility pH 4.0 Concentration
[11] = glycylglycine buffer, pH 5.0, read-out: Solubility pH 5.0 Concentration
[12] = Table 5, selectivity, hCTR bind IC50 / hAmylin-R bind IC50
[13] = Table 5a, selectivity, hCTR bind IC50 / hAmylin-R bind IC50
[14] = Table 5b, selectivity, hCTR bind IC50 / hAmylin-R bind IC50
[15] = Table 5c, selectivity, hCTR bind IC50 / hAmylin-R bind IC50
[16] = Table 7, human binding selectivity, included for comparison
[17] = Table 7a (preferred compounds), human binding selectivity, included for comparison
[18] = ratio of human calcitonin receptor binding IC50 to human amylin receptor binding IC50
[19] = Table 7, rat binding selectivity, rCTR IC50 / rAmylin-R IC50
[20] = Table 7a (preferred compounds), rat binding selectivity, rCTR IC50 / rAmylin-R IC50
[21] = ratio of rCTR bind IC50 to rAmylin-R bind IC50

solubility at 18 h [1, 4] [µM] | solubility at 18 h [1, 5] [µM] | solubility at 18 h [1, 6] [µM] | solubility at 18 h [1, 7] [µM] | solubility at 18 h [1, 8] [µM] | solubility at 18 h [1, 9] [µM] | solubility at 18 h [1, 10] [µM] | solubility at 18 h [1, 11] [µM] | Ratio hCT/hAmylin binding [2, 12] | Ratio hCT/hAmylin binding [2, 13] | Ratio hCT/hAmylin binding [2, 14] | Ratio hCT/hAmylin binding [2, 15] | Ratio hCT/hAmylin binding [2, 16] | Ratio hCT/hAmylin binding [2, 17] | Ratio hCT/hAmylin binding [2, 18] | IC50 ([3]; Table 7) [nM] | Ratio rCT/rAmylin binding [3, 19] | Ratio rCT/rAmylin binding [3, 20] | Ratio rCT/rAmylin binding [3, 21] | IC50 (rat calcitonin receptor) [nM] | Structure (SMILES)
≥ 200 | ≥ 200 | ≥ 200 | ≥ 200 | ≥ 200 | ≥ 200 | ≥ 200 | ≥ 200 | 25.0 | 25.0 | 25.0 | 25.0 | 25.0 | 25.0 | 25.0 | 1.12 | 71.3 | 71.3 | 71.3 | 79.9 | CC[C@H](C)[C@H](NC(=O)[C@H](C)NC(=O)CNC(=O)[C@H](Cc1ccccc1)NC(=O)[C@H](CC(N)=O)NC(=O)[C@@H]1CCCN1C(=O)[C@H](CO)NC(=O)[C@H](CO)NC(=O)[C@H](Cc1c[nH]cn1)NC(=O)[C@H](CCCNC(=N)N)NC(=O)[C@H](CC(C)C)NC(=O)[C@H](Cc1ccccc1)NC(=O)[C@H](CC(N)=O)NC(=O)[C@H](C)NC(=O)[C@H](CC(C)C)NC(=O)[C@H](CCCNC(=N)N)NC(=O)[C@H](CCC(N)=O)NC(=O)[C@@H](NC(=O)[C@H](C)NC(=O)[C@@H]1CSSC[C@H](NC(=O)[C@H](CCCCN)NC(=O)CC[C@H](NC(=O)CCCCCCCCCCCCCCCCCCC(=O)O)C(=O)O)C(=O)N[C@@H](CC(N)=O)C(=O)N[C@@H]([C@@H](C)O)C(=O)N[C@@H](C)C(=O)N[C@@H]([C@@H](C)O)C(=O)N1)[C@@H](C)O)C(=O)N1CCC[C@H]1C(=O)N[C@@H](CO)C(=O)N[C@@H](CO)C(=O)N[C@H](C(=O)N[C@@H](CC(N)=O)C(=O)N[C@H](C(=O)NCC(=O)N[C@@H](CO)C(=O)N[C@@H](CCC(=O)O)C(=O)N[C@H](C(=O)N[C@@H](Cc1ccc(O)cc1)C(N)=O)[C@@H](C)O)C(C)C)[C@@H](C)O [Example 23]
≥ 200 | ≥ 200 | ≥ 200 | ≥ 200 | ≥ 200 | ≥ 200 | ≥ 200 | ≥ 200 | 21.2 | 21.2 | 21.2 | 21.2 | 21.2 | 21.2 | 21.2 | 0.104 | 52.2 | 52.2 | 52.2 | 5.43 | CC[C@H](C)[C@H](NC(=O)[C@H](C)NC(=O)CNC(=O)[C@H](Cc1ccccc1)NC(=O)[C@H](CC(N)=O)NC(=O)[C@@H]1CCCN1C(=O)[C@H](CO)NC(=O)[C@H](CO)NC(=O)[C@H](Cc1c[nH]cn1)NC(=O)[C@H](CCCNC(=N)N)NC(=O)[C@H](CC(C)C)NC(=O)[C@H](Cc1ccccc1)NC(=O)[C@H](CCC(=O)O)NC(=O)[C@H](C)NC(=O)[C@H](CC(C)C)NC(=O)[C@H](CCCNC(=N)N)NC(=O)[C@H](CCC(N)=O)NC(=O)[C@@H](NC(=O)[C@H](C)NC(=O)[C@@H]1CSSC[C@H](NC(=O)[C@@H](N)CCCCNC(=O)CC[C@H](NC(=O)CCCCCCCCCCCCCCCCCCC(=O)O)C(=O)O)C(=O)N[C@@H](CC(N)=O)C(=O)N[C@@H]([C@@H](C)O)C(=O)N[C@@H](C)C(=O)N[C@@H]([C@@H](C)O)C(=O)N1)[C@@H](C)O)C(=O)N1CCC[C@H]1C(=O)N[C@@H](CO)C(=O)N[C@@H](CO)C(=O)N[C@H](C(=O)N[C@@H](CC(N)=O)C(=O)N[C@H](C(=O)NCC(=O)N1CCC[C@H]1C(=O)N[C@@H](Cc1c[nH]cn1)C(=O)N[C@H](C(=O)N[C@@H](Cc1ccc(O)cc1)C(N)=O)[C@@H](C)O)C(C)C)[C@@H](C)O [Example 118] (H-K([γGlu-C20 diacid])CNTATCATQRLAEFLRHSSPNFGAIPSSTNVGPHTY-NH2; disulfide 2-7)
≥ 200 | ≥ 200 | ≥ 200 | ≥ 200 | ≥ 200 | ≥ 200 | ≥ 200 | ≥ 200 | 31.1 | 31.1 | 31.1 | 31.1 | 31.1 | 31.1 | 31.1 | 1.5 | 46.2 | 46.2 | 46.2 | 69.2 | CC[C@H](C)[C@H](NC(=O)[C@H](C)NC(=O)CNC(=O)[C@H](Cc1ccccc1)NC(=O)[C@H](CC(N)=O)NC(=O)[C@@H]1CCCN1C(=O)[C@H](CO)NC(=O)[C@H](CO)NC(=O)[C@H](Cc1c[nH]cn1)NC(=O)[C@H](CCCNC(=N)N)NC(=O)[C@H](CC(C)C)NC(=O)[C@H](Cc1ccccc1)NC(=O)[C@H](CC(N)=O)NC(=O)[C@H](C)NC(=O)[C@H](CC(C)C)NC(=O)[C@H](CCCNC(=N)N)NC(=O)[C@H](CCC(N)=O)NC(=O)[C@@H](NC(=O)[C@H](C)NC(=O)[C@@H]1CSSC[C@H](NC(=O)[C@H](CCCCN)NC(=O)CC[C@H](NC(=O)CCCCCCCCCCCCCCCCCCC(=O)O)C(=O)O)C(=O)N[C@@H](CC(N)=O)C(=O)N[C@@H]([C@@H](C)O)C(=O)N[C@@H](C)C(=O)N[C@@H]([C@@H](C)O)C(=O)N1)[C@@H](C)O)C(=O)N1CCC[C@H]1C(=O)N[C@@H](CO)C(=O)N[C@@H](CO)C(=O)N[C@H](C(=O)N[C@@H](CC(N)=O)C(=O)N[C@H](C(=O)NCC(=O)N[C@@H](Cc1c[nH]cn1)C(=O)N[C@@H](CC(N)=O)C(=O)N[C@H](C(=O)N[C@@H](Cc1ccc(O)cc1)C(N)=O)[C@@H](C)O)C(C)C)[C@@H](C)O [Example 40]
